From patent publication US20220354911A1, “TREATMENT OF TUMORS BY A COMBINATION OF AN ONCOLYTIC ADENOVIRUS, A CDK4/6 INHIBITOR AND A FURTHER THERAPEUTICALLY ACTIVE AGENT” (KLINIKUM RECHTS DER ISAR DER TECHNISCHEN UNIVERSITÄT MÜNCHEN, priority 2019, published 2022)

Key:
LN229 cells = assay: Western blot of XVir-N-31 infected LN229 cells, LEE011 and JQ1; assay type: cell-based
Method: 2.5×10^5 LN229 cells were seeded in 10 cm plates in DMEM medium. The following day the cells were treated with 500 nM LEE011 and 200 nM JQ1 or a combination of both. At the next morning the cells were infected with XVir-N-31 at 20 MOI. One hour after infection DMEM Medium containing the inhibitors was added on the cells. After each time point (24, 48, 72 hours) the cells were put on ice, washed twice with ice-cold PBS and 300 μl of SDS Protein Lysis Buffer was added. The cells were transferred to reaction tubes and the DNA sheared with a syringe and a needle and the supernatant transferred for further use after centrifugation. The protein concentration was measured with a BCA assay and samples with 4× Lämmli:DTT 6:1 and a concertation of 20 μg were produced and transferred to a 10% SDS gel. The gel electrophoresis started at 90V and was increased to 150V after the ladder started to separate. The proteins on the gel were blotted to a membrane for 2 hours at 100V and blocked in 5% milk in TBS-T for 1 hour at RT. After washing in TBS-T, the first antibody was added according to the manufacturer's information over night at 4° C. The used antibodies were directed to GAPDH, E1A, DBP, E2F1, Rb, pRb for all time points, and caspase 3 and the full length and cleaved version of PARP additionally for the 72 hours samples. The next day, the washing was repeated and the secondary antibody added for 1 hour at RT. Following the washing, ECL was used to image the chemiluminescence by the ChemiDoc™ MP Imaging System.

UMUC-3 and RT112 = assay: FACS cell cycle analysis, JQ-1 and Palbociclib; assay type: cell-based, human; details: 100 or 300 nM JQ-1, 500 nM Palbociclib
Method: For such purpose, 5×10^4 cells UMUC-3 and RT112, respectively, were seeded in 6-well plates and 24 hours later treated with appropriate inhibitors. 1 day later, at approximately 80% confluency, cells were washed with PBS, trypsinized, washed again and fixated with icecold 80% ethanol. For cell cycle analysis, samples were incubated with the DNA-intercalating dye 7-aminoactinomycine D (7-AAD) and measured via FACS analysis. Evaluation of measured data was performed via the software FlowJo.

XVir-N-31 [1] = assay: XVir-N-31 fiber DNA qPCR in glioblastoma cells, JQ1 and Ribociclib; assay type: cell-based, Mastadenovirus, Type C, Serotype 5; details: U87 24 h.p.i., LN229 and T98G 48 h.p.i.
Method: 1×10^5 cells were seeded in 6 well plates in DMEM medium. The following day the cells were treated with the 500 nM LEE011 and 50 nM JQ1. At the next morning the cells were infected with 20 MOI for U87 and LN229, and 50 MOI for T98G respectively. One hour after infection DMEM Medium containing the inhibitors was added onto the cells. After each time point (4, 24, 48 hours) the cells were washed once with PBS and 200 μl of SDS DNA Lysis Buffer was added. The cells were incubated with Proteinase K for 1 hour before undergoing a phenol-chloroform-isoamylalcohol purification. The DNA was diluted in 1×TE buffer and the concentration of the DNA was determined using a Nanodrop. For each sample a solution of 10 ng/μl was prepared and a RT-qPCR using 50 ng of DNA and a GoTaq Master mix. Specific Fiber forward and reverse primers were used and for the calculation of the Δ ct value specific Actin primers were used as well. For each sample 3 Fiber and 2 Actin values were measured. The calculation was done in excel and each 24 and 48 hours was calculated based on its 4 hours value (initial viral entry, before replication).

XVir-N-31 [2] = assay: Hexon Titer test, particle formation of XVir-N-31 in UMUC-3 cells; assay type: cell-based, Mastadenovirus, Type C, Serotype 5
Method: The production of viral particles was analyzed via immunohistochemistry-staining of hexon proteins (Hexon Titer test). Therefor, 2×10^5 adherent HEK293 cells per well were seeded in 24-well plates. Cell cultures samples collected after indicated time-points post infection and indicated co-treatment with JQ-1 were pretreated with three cycles thaw-freeze to release viral particles from cells and then serially diluted. The HEK293 cells were infected in volumes of either 50 μl or 10 μl per sample. The plates were then incubated for 40 h at 37° C. and 10% CO2 before checking for detectable cytopathic effects. The medium was aspirated, and the plates were dried for 5-10 min before fixing the cells by adding ice-cold methanol for 10 min at −20° C. The wells were washed twice with PBS+1% BSA. The primary antibody (goat anti-hexon, 1:500) was added and the plates were incubated for 1 h at 37° C. before washing it twice with PBS+1% BSA. Next, the secondary antibody (Rabbit Anti-Goat HRP conjugate, 1:1000) was added and incubated for 1 h at 37° C. Again, the wells were washed twice with PBS containing 1% BSA before the DAB solution was added. After 30 min incubation, 10 different random fields of view (f.o.v.) per well were counted under the 20× objective of a microscope. Counting iterations were averaged and according to this formula, infectious particles per ml were calculated: […]

[3] = test system: E1A, E1B55k, DBP, E40rf6 and Hexon; assay: Western blot of viral protein expression kinetics in UMUC-3 cells with JQ-1; assay type: cell-based, Mastadenovirus, Type C, Serotype 5; details: UMUC-3, 10 MOI
Method: 1×10^6 UMUC-3 cells were seeded in 10 cm plates in DMEM medium and 24 hours post seeding infected with 10 MOI XVir-N-31. 1 hour post infection, culturing media was either refilled by DMEM or DMEM spiked with 500 nM JQ-1. 12, 24, 36 and 48 h.p.i, lysates of total proteins were taken using an SDS-buffer. BCA Assay was applied to adjust equivalent protein concentrations. Then, protein samples were supplemented with Lämmli buffer and separated via SDS-PA gelelectrophoresis on 10% PA-Gels. Samples were blotted onto PVDF membranes using a BioRAD Wet Tank System. These membranes were blocked with TBS-Tween buffer containing 5% Skim milk powder for 1 hour at room temperature. Incubation with primary antibodies was conducted over night at 4° C. and with HRP-conjugated secondary antibodies for 1 hour at room temperature. Chemiluminescence was detected using ECL prime (Pierce) with the ChemiDoc Imaging System (BioRad). Figures were designed in Adobe® Illustrator and evaluation was performed with ImageLab.

[4] = LN229, with XVir-N-31, 48 hours post infection
[5] = LN229, with XVir-N-31, 72 hours post infection

SMILES: Cc1sc2c(c1C)C(c1ccc(Cl)cc1)=N[C@@H](CC(=O)OC(C)(C)C)c1nnc(C)n1-2 [JQ-1, thieno-triazolo-1-4-diazepine]
- viral proteins E1A and DBP (LN229 cells; LN229, XVir-N-31 MOI 20, 500 nM LEE011 or/and 200 nM JQ-1, 24 hours post infection): increased
- viral proteins E1A and DBP (LN229 cells; LN229, XVir-N-31 MOI 20, 500 nM LEE011 or/and 200 nM JQ-1, 48 hours post infection): increased
- viral proteins E1A and DBP (LN229 cells; LN229, XVir-N-31 MOI 20, 500 nM LEE011 or/and 200 nM JQ-1, 72 hours post infection): increased
- cellular proteins Rb and pRb (LN229 cells; LN229, with XVir-N-31, 24 hours post infection): remained inhibited
- E2F-1 (LN229 cells; [4]): stabilized
- cellular proteins Rb and pRb (LN229 cells; [4]): remained inhibited
- E2F1 (LN229 cells; [5]): enhanced
- cellular protein Rb (LN229 cells; [5]): decreased
- presence of cleaved PARP (LN229 cells; XVir-N-31 infected LN229 cells, 72 hours post infection): increased
- cell cycle (UMUC-3 and RT112): no significant influence on the cell cycle
- XVir-N-31 replication (relative fiber DNA) (XVir-N-31 [1]): high increase in replication
- particle formation of XVir-N-31 (XVir-N-31 [2]; 500 nM JQ-1, 39, 49, 62 or 72 hpi): significantly increased
- kinetic of XVir-N-31's particle formation (XVir-N-31 [2]; concurrent treatment with 500 nM JQ-1): highly accelerated
- Hexon expression ([3]; 500 nM JQ-1): expressed in high levels in early time-points
- absolute viral protein expression and kinetic of XVir-N-31 viral proteins (E1A, E1B55k, DBP and E40rf6) ([3]; 500 nM JQ-1 concurrent, 12, 24, 36 and 48 h.p.i): highly accelerated
